According to patent US20240369550A1, “MACROMOLECULAR STRUCTURES AND USES THEREOF” (The Regents of the University of Michigan, priority 2015, published 2024):
“Also recorded” adds a separate entry of the source.

Tested on: DNase I
Assay: DNase I-mediated degradation of DNA-histone structures (degradation modifier assay)
Format: biochemical, bovine
Conditions: LL-37 approx. 0.5, 5 or 50 μM; total Sytox Green fluorescence; relative to structures lacking LL-37 treated with DNase I
Description: Time-lapse microscopy and microplate photometry were utilized to measure the overall rate of degradation, and DNA-histone structures were treated with multiple concentrations of DNase I to verify the dose-dependency of this rate (FIG. 3).
1 mg/ml DNase I (MW 31 kDa) was prepared in 10 mM Tris-HCl, 10 mM CaCl2, pH 7.5 (Tris buffer). Each well containing DNA-histone structures (as previously described) was washed 3 times with 150 μl of Tris buffer, and all solutions within each well were removed. 200 μL of the DNase I solution was then added to each well, and time-lapse fluorescent images of each well were acquired.
1 mg/ml LL-37 (MW 4.49 kDa) and 2 mg/ml histones (both in PBS) were added to a solution of 20% w/w PEG/PBS such that the final concentration of histones was approximately 1 mg/ml, and the final concentration of LL-37 in each solution was approximately 0.5 μM, 5 μM, or 50 μM. […]
After complete removal of the solutions in each well, 150 μL of DNase I solution was added to each well. Time-lapse images or measurements of total fluorescence were acquired at a rate of one measurement per minute.

## LL-37
  overall rate of DNase I-mediated degradation of DNA-histone structures: dose-dependent decrease in the overall rate of DNase I-mediated degradation; also recorded: inhibit the rate of DNase I mediated degradation
